SMILES	melting point
N#Cc1c(OCC#CI)nsc1SC(F)F	106 to 107 °C
Cc1c(OCC(F)(F)F)ccnc1CS(=O)c1nc2ccccc2n1NCC(C)C (centres undefined)	129 to 131 °C
COc1cc(C)cc(OCCCSCCC(=O)O)c1	39 to 42 °C
Cc1noc([C@@H]2CSCc3c(O)cc(O)c(C)c3C(=O)OC[C@@H](O)C(=O)N2)n1	265 to 267 °C
CC12CC3(C)CC(CO)(C1)CC(CO)(C2)C3	158 to 161 °C
CNC(=S)C1(c2cccnc2)CCCCC1NOCCO (centres undefined)	142 to 145 °C
CCCCCCCCCCCCCCCC(=O)N[C@@H](Cc1ccc(O)cc1)C(=O)OC	100 °C
CC1=C(CO)C(=O)OC(C(C)C2CCC3C4CC5OC56C(O)C=CC(=O)C6(C)C4CCC23C)C1 (centres undefined)	227 to 228 °C
Cc1cc2c(cc1O)OC[C@@H](N1CCC(O)(c3ccc(F)cc3)CC1)[C@H]2O (relative stereo)	174 °C
CC12CC(Cl)C(O)CC1CCC1C2CCC2(C)C(O)C(N3CCCCC3)CC12 (centres undefined)	232 to 234 °C
COc1ccc(Cc2nc(NCCO)c3c(C)c(C#N)sc3n2)cc1OC	149 to 151 °C
CCC(C)(C)c1ccc(Oc2cc(N)c(O)c([N+](=O)[O-])c2)c(C(C)(C)CC)c1	144 to 148 °C
COc1cc(NC(C)=O)c(OC)cc1C#N	165 to 168 °C
COc1cc(N)c(Cl)cc1C(=O)NCC1CCN(CCCCN)CC1	104 to 107 °C
COc1cc(N2CCC(Br)C2=O)ccc1Cl (centres undefined)	113 to 115 °C
CCCCNC1=NS(=O)(=O)c2sc(Cl)cc2N1	218 to 219 °C
NC(=S)N(N)Cc1cccc(Cl)c1	153 to 158 °C
COc1ccc(C=CC(=O)O)cc1-c1cc2c(cc1OCCCCCCCO)C(C)(C)CCC2(C)C	105 to 107 °C
CC(=O)CC(=O)Nc1ccc(C)cc1C	89 °C
CCOC(=O)/C=C/c1ccc(OCCOC)cc1OS(=O)(=O)C(F)(F)F	37.1 to 37.3 °C
CC(C)(C)c1cc(=O)o[nH]1	110 to 115 °C
CCN(CC)C(=O)n1ccc(Sc2cccc(C)c2)n1	96 to 98 °C
CC(C)OC(=O)c1cc(-n2c(=O)[nH]c3c(c2=O)CCCC3)ccc1Cl	205 to 207 °C
CCOC(=O)c1[nH]c2ccc(C)cc2c(=O)c1C	190 to 193 °C
CC(CCCO[Si](C)(C)C(C)(C)C)C1CCC2C3CC=C4C(C)(C)C(O[Si](C)(C)C(C)(C)C)CCC4(C)C3CCC12C (centres undefined)	161 to 162 °C

SMILES	melting point
C=C(C)c1nc2cc3c(cc2[nH]1)NC(=O)C3(C)C	270 to 273 °C
CCOC(=O)c1ccsc1NC(=O)NC	83 to 87 °C
CC(=O)CN1CCc2c(c(=O)oc3cc(C)ccc23)C1	128 to 129 °C
CC(=O)O[C@H]1[C@H](NC(C)=NC#N)c2cc(C#N)ccc2OC1(C)C (relative stereo)	236 to 238 °C
CCn1c2c(c(=O)c3cc(C(C)C)ccc31)Cc1cc(C)sc1-2	168 to 169 °C
O=C(CCS)NCCS	40 °C
Cc1sc([Si](C)(C)C)cc1C1=C(c2cc([Si](C)(C)C)sc2C)C(F)(F)C(F)(F)C1(F)F	91.4 °C
CC1(C)CCC(C)(C)c2cc(CC(=O)O)ccc21	149 to 150 °C
CCCCc1ccc(C(=O)O)c(=O)[nH]1	149 °C
CC(=O)Nc1nc(CC(=O)O)ns1	161 to 163 °C
O=[N+]([O-])c1ccc2c(c1)OP(=O)(N(CCCl)CCCl)NC2 (centres undefined)	123 to 126 °C
CC(C)(C)OC(=O)N(C(=O)OC(C)(C)C)c1sc(-c2cncc(F)c2)nc1F	143 °C
CC(=O)C(=[N+]=[N-])C(=O)CCCCCCCCCc1ccc(S(=O)(=O)Cl)cc1	48.5 to 50 °C
N#Cc1ccc(NC2CCN(Cc3ccc(C(F)(F)F)cc3)CC2)nn1	243 °C
CCN1CCC(O)(c2cccc(OC)c2)CC1	86.7 to 91.1 °C
CCCOCCOc1ccc(OCC(O)CNCCNC(=O)N2CCOCC2)cc1 (centres undefined)	88 °C
CCn1nc(C)c2c(Cl)c(CCl)cnc21	96 to 97 °C
Cc1ccccc1N1CC(=O)N(C)C(=O)N1	147 to 148 °C
Cc1c(C)c(N2CCN(c3ccc(C(F)(F)F)cc3)CC2)c(C)c2c1OC(C)(C)C2N1CCCC1 (centres undefined)	140 to 141 °C
COc1cc(O)c2c(c1OC)C(=O)C(O)=C(C)C2=O	218 to 220 °C
Nc1ccc(OCc2nnco2)cc1	56 to 57 °C
CN1CCc2cc([N+](=O)[O-])c(O)cc2C(c2cccc3c2OCC3)C1 (single isomer, unassigned; (+))	122 to 123 °C
CO[C@H]1CC[C@H]([C@H]2CC[C@H](CCC3OCCO3)CC2)CC1	74 °C
CCCN=C(N)Nc1ccnc(SC)n1	177 to 178 °C

Second part, the compound after the results:

melting point	SMILES
118 °C	CCOC(=O)c1cnc2ccc(-c3ccc(C(F)(F)F)cc3)cn12
138 to 140 °C	Oc1c(Cl)nc(-c2ccccc2)nc1Cl
161 to 162 °C	Cc1cccc(-c2ccnc3c(C#N)cnn23)c1
159 °C	COc1ccc2ccccc2c1-c1c(C)c2c(c(C)c1P(c1ccccc1)c1ccccc1)COC2
179 to 180 °C	CC(C)c1ccc(NC(=O)OC(C)(C)C)c(NC(=O)CC(=O)c2cccc(C#N)c2)c1
184 to 186 °C	COc1ccc(-n2nc(C#N)cc2-c2ccc(S(C)(=O)=O)cc2)cc1Br
213 to 214 °C	Nc1ncnc2c1ncn2CCCN1CCC(NC(=O)c2ccccc2)CC1
154 to 157 °C	CCCC(=O)Nc1cc2c(s1)CCN(C(C(=O)C1CC1)c1ccccc1F)C2 (centres undefined)
228 to 230 °C	Nc1cc(C(=O)Cn2c(-c3nonc3N)nc3ccccc32)ccc1Cl
112 to 114 °C	COC(=O)C(Cc1ccc([N+](=O)[O-])cc1)NC(=O)NCc1cccc(Oc2ccccc2)c1 (single isomer, unassigned; (+))
151 to 152 °C	Cc1cccc(-c2nc(C3CCN(C)CC3)sc2-c2ccnc(NC(=O)c3ccccc3)c2)c1
74 to 76 °C	C#CCOC1c2ccccc2Oc2ccccc21
208 to 210 °C	CON(C)C(=O)Nc1c(C(=O)C2CCCCC2)[nH]c2cc(Cl)ccc12
150 to 152 °C	COc1ccc2c(c1)cc(-c1nnn(Cc3cccc(OCc4ccc5ccccc5n4)c3)n1)c(=O)n2CCCCl
200 °C	O=C1Nc2cccnc2N(C(=O)N2CCC(CCCN3CCCCC3)CC2)c2ccccc21
158 to 160 °C	O=C1c2ccccc2C(=O)N1OCn1ccnc1
92 °C	CN1CCC(OC2c3ccc(Br)cc3CCn3cc(-c4ccccc4)nc32)CC1 (centres undefined)
180 to 183 °C	O=[N+]([O-])c1ccc(-n2nc(-c3ccccc3O)nc2-c2ccccc2O)cc1
105 to 106 °C	Cn1cccc1CCNCC(O)COc1cccc2[nH]ccc12 (centres undefined)
192 to 193 °C	CSCCC(=O)NCc1cccc(-c2nc(=O)c3ccccc3s2)n1
138 to 140 °C	O=C(c1c(F)cccc1F)N1COCN(c2ccc(S(=O)C(F)F)cc2F)C1=O (centres undefined)
265 °C	CC1CC(=O)NN=C1c1ccc2c(c1)nc(C1CC1)n2Cc1ccc(-c2ccccc2-c2nnn[nH]2)cc1 (centres undefined)
104 to 108 °C	CCOC(=O)C1(NC(C)=O)CC2c3cc(C)ccc3Oc3ccccc3N2C1=O (centres undefined)
62 to 65 °C	COc1ccc(CCCNc2c(C)c(C)c3c(c2C)C(c2ccc(C(C)C)cc2)C(C)(C)O3)cc1 (centres undefined)
179 °C	Cc1cccc(NC(=O)NCCC(=O)N(c2ccccc2)c2ccccc2)c1

melting point	SMILES
114 to 116 °C	CCCc1cc(Cl)c2sc(Cc3ccc(OC)cc3)c(C)c2c1O
198 to 200 °C	CCn1ncc2c3ncn(Cc4ccccc4)c(=O)c3cnc21
210 °C	O=C(O)c1ccccc1-c1ccc(Cc2nc(-c3ccccc3)nc3ccccc23)cc1
168 to 170 °C	O=S(=O)(c1cccc2ccccc12)c1n[nH]c2ccc(OCC3CCCNC3)cc12 (centres undefined)
262 to 263 °C	CC1=NC(C)=C(c2ccc(Oc3ccc(S(C)=O)cc3)cc2)C(=O)C1Br (centres undefined)
165 to 166 °C	Cc1ccccc1CC(=NC#N)NC(NC(=O)Cc1ccc2cccnc2c1)C(C)(C)C (centres undefined)
168 °C	CCCCCCOc1cc(C(=O)O)cc(N)c1C(=O)c1ccccc1
225 to 227 °C	O=C(NC(=O)c1c(Cl)cccc1Cl)Nc1cc(-c2ccc(-c3ccccc3)cc2)on1
157 to 158 °C	CCOC(=O)CNc1nc(Cl)ccc1NC(=O)c1ccc(Cl)cc1
164 °C	NC(=O)c1coc(-c2ccc(Oc3ccc(F)cc3)cc2)n1
136 to 137 °C	CCOC(=O)/C=C/c1c(-c2ccc(F)cc2)n(CCF)c(=O)c2ccccc12
168 °C	CCC1(CC)OC(=O)N(CCC(C)(C)NC[C@H](O)c2ccc(O)c(NS(C)(=O)=O)c2)c2ccccc21
175 to 177 °C	CS(=O)(=O)c1ccc(-n2nc(C(F)(F)F)cc2-c2ccc(-c3cocn3)cc2)cc1
190 to 195 °C	Cc1cc(C)nc(NC(=O)NS(=O)(=O)c2ccccc2C(F)F)n1
107 to 108 °C	CC(C)c1ccc(-c2nn(C)c(=O)c3ccccc23)cc1
90 °C	COc1ccc(CN(C)C(=O)CCCc2ccc([N+](=O)[O-])cc2)cc1OC
104 to 105 °C	CCCCc1nc2ccc(C(C)=O)cc2c(=O)n1Cc1ccc(-c2ccccc2-c2nnnn2C(c2ccccc2)(c2ccccc2)c2ccccc2)cc1
133 to 135 °C	CCCC(C)CNc1cccc(-c2ccnc3c(C(=O)c4cccs4)cnn23)c1 (centres undefined)
163 to 165 °C	COc1ccc(N2CCN(c3ccc(OC)nc3-c3ccc(N(C)C)cc3)CC2)cc1
193 to 195 °C	O=C(O)C1(c2ccccc2)Cc2ccccc2C1
160 to 162 °C	O=C(NCCn1cncn1)c1ccc(Br)cc1
187 to 190 °C	CCOC(=O)c1c(S(=O)(=O)O)nc(-c2ccccc2)c([N+](=O)[O-])c1C(=O)OCC
71 to 72 °C	CCOC(=O)Cc1nc(-c2ccccc2)c(-c2ccccc2)o1
265 to 270 °C	COCCOc1cc2c(Nc3ccc(Sc4nccn4C)c(Cl)c3)c(C#N)cnc2cc1F
115 to 116 °C	CN(C)c1ccc(C(=O)Nc2ccccc2CCC2CCCCN2C)cc1 (centres undefined)
